According to the supplement of paper PMC4862054:

How the values were obtained:
Details in all cases: incubation time: 72 h
HDQ-P1 [1] = test: normalised response (% of control), CellTox Green; higher = less cell death (100 = DMSO, 0 = benzethonium chloride kill control)
Method in brief: (§1)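 Each value is the plate-normalised signal at one concentration of the series. Breast cancer cell lines (20 µl suspension) were incubated 72 h in 384-well plates with compound at 5 concentrations in 10-fold steps over a compound-specific 10,000-fold range. CellTox Green and then CellTiter-Glo were read, and each plate was scaled to 0.1 % DMSO (100) and a positive kill control (0).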

CAL-120 [2] = test: as above
Method in brief: as §1

MDA-MB-436 [3] = test: as above
Method in brief: as §1

MDA-MB-468 [4] = test: as above
Method in brief: as §1

MCF-10A [5] = test: as above
Method in brief: as §1

CAL-51 [6] = test: as above
Method in brief: as §1

BT-474 [7] = test: as above
Method in brief: as §1

MDA-MB-231 [8] = test: as above
Method in brief: as §1

DU-4475 [9] = test: as above
Method in brief: as §1

CAL-85-1 [10] = test: as above
Method in brief: as §1

MDA-MB-453 [11] = test: as above
Method in brief: as §1

CAL-148 [12] = test: as above
Method in brief: as §1

BT-549 [13] = test: as above
Method in brief: as §1

HCC1599 [14] = test: as above
Method in brief: as §1

HDQ-P1 [15] = test: normalised response (% of control), CellTiter-Glo; higher = more viable cells (100 = DMSO, 0 = benzethonium chloride kill control)
Experimental: (§2)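 DSRT, 72 h incubation, CellTox Green / CellTiter-Glo readout. Signal is normalised to DMSO and benzethonium chloride controls. Value is the normalised response at dose 3.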

CAL-120 [16] = test: as above
Experimental: as §2

Hs578T [17] = test: as above
Experimental: as §2

MDA-MB-436 [18] = test: as above
Experimental: as §2

MDA-MB-468 [19] = test: as above
Experimental: as §2

MCF-10A [20] = test: as above
Experimental: as §2

HCC1143 [21] = test: as above
Experimental: as §2

CAL-51 [22] = test: as above
Experimental: as §2

BT-474 [23] = test: as above
Experimental: as §2

MFM-223 [24] = test: as above
Experimental: as §2

MDA-MB-231 [25] = test: as above
Experimental: as §2

SK-BR-3 = test: as above
Experimental: as §2

DU-4475 [26] = test: as above
Experimental: as §2

HCC1937 [27] = test: as above
Experimental: as §2

CAL-85-1 [28] = test: as above
Experimental: as §2

MDA-MB-453 [29] = test: as above
Experimental: as §2

CAL-148 [30] = test: as above
Experimental: as §2

BT-549 [31] = test: as above
Experimental: as §2

HCC1599 [32] = test: as above
Experimental: as §2

HCC1143 [33] = test: normalised response (% of control), CellTox Green; higher = less cell death (100 = DMSO, 0 = benzethonium chloride kill control)
Method in brief: as §1

MFM-223 [34] = test: as above
Method in brief: as §1

HCC1937 [35] = test: as above
Method in brief: as §1

Hs578T [36] = test: as above
Method in brief: as §1

| Structure (SMILES) | normalised response (HDQ-P1 [1]) [%] | normalised response (CAL-120 [2]) [%] | normalised response (MDA-MB-436 [3]) [%] | normalised response (MDA-MB-468 [4]) [%] | normalised response (MCF-10A [5]) [%] | normalised response (CAL-51 [6]) [%] | normalised response (BT-474 [7]) [%] | normalised response (MDA-MB-231 [8]) [%] | normalised response (DU-4475 [9]) [%] | normalised response (CAL-85-1 [10]) [%] | normalised response (MDA-MB-453 [11]) [%] | normalised response (CAL-148 [12]) [%] | normalised response (BT-549 [13]) [%] | normalised response (HCC1599 [14]) [%] | normalised response (HDQ-P1 [15]) [%] | normalised response (CAL-120 [16]) [%] | normalised response (Hs578T [17]) [%] | normalised response (MDA-MB-436 [18]) [%] | normalised response (MDA-MB-468 [19]) [%] | normalised response (MCF-10A [20]) [%] | normalised response (HCC1143 [21]) [%] | normalised response (CAL-51 [22]) [%] | normalised response (BT-474 [23]) [%] | normalised response (MFM-223 [24]) [%] | normalised response (MDA-MB-231 [25]) [%] | normalised response (SK-BR-3) [%] | normalised response (DU-4475 [26]) [%] | normalised response (HCC1937 [27]) [%] | normalised response (CAL-85-1 [28]) [%] | normalised response (MDA-MB-453 [29]) [%] | normalised response (CAL-148 [30]) [%] | normalised response (BT-549 [31]) [%] | normalised response (HCC1599 [32]) [%] | normalised response (HCC1143 [33]) [%] | normalised response (MFM-223 [34]) [%] | normalised response (HCC1937 [35]) [%] | normalised response (Hs578T [36]) [%] |
| --- | --- | --- | --- | --- | --- | --- | --- | --- | --- | --- | --- | --- | --- | --- | --- | --- | --- | --- | --- | --- | --- | --- | --- | --- | --- | --- | --- | --- | --- | --- | --- | --- | --- | --- | --- | --- | --- |
| Cn1cc(C[C@@H](N)C(=O)O)c2ccccc21 [1-methyl-D-tryptophan] (50 nM) | 105 | 96.8 | 73.2 | 99.9 | 102 | 80.4 | 99.9 | 83 | 103 | 98.5 | 105 | 68.5 | 88 | 94.2 | 102 | 104 | 95.4 | 102 | 92.6 | 102 | 99 | 67.8 | 103 | 93.4 | 98.5 | 90.8 | 100 | 96.2 | 102 | 96 | 90.1 | 107 | 92.6 | – | – | – | – |
| CCCCCOC(=O)Nc1nc(=O)n([C@@H]2O[C@H](C)[C@@H](O)[C@H]2O)cc1F [Capecitabine] (100 nM) | 105 | 99.9 | 95.3 | 127 | 101 | 105 | 91.4 | 104 | 99.9 | 105 | 97.3 | 99.1 | 89.4 | 95.2 | 97.5 | 103 | 98.8 | 102 | 103 | 95.5 | 98.7 | 99.5 | 98.7 | 102 | 99.5 | 100 | 106 | 97.2 | 95.4 | 103 | 114 | 102 | 98.3 | 87.6 | 104 | 103 | – |
| Cc1c(C(=O)Nc2ccc(N3C[C@@H](C)O[C@@H](C)C3)nc2)cccc1-c1ccc(OC(F)(F)F)cc1 [Erismodegib] (100 nM) | 99.6 | 94.8 | 101 | – | 94.9 | 93.3 | 97.1 | 97.2 | 95.8 | 88.8 | 98.6 | 105 | 104 | 110 | 91.3 | 101 | 101 | 92.3 | 90.4 | 89.6 | 96.4 | 68.9 | 91.2 | 85.6 | 99.9 | 88.6 | 99.4 | 103 | 92.6 | 85 | 92.7 | 102 | 93.5 | 98.8 | 97.2 | – | 109 |
